Data from PubChem BioAssay AID328 (DTP/NCI, 2004).
Values joined by “and” are separate entries in the source; they are usually repeats but may differ in a detail not shown here. Identical values can stand only once. Inconclusive results and toxic doses are left out. How the source made its calls: active means survival T/C of 150% or more; inactive means T/C below 125% in these data.

Tested on: BDF1 mice, P388 leukemia ip, median survival T/C
Assay: NCI In Vivo Anticancer Drug Screen. Data for tumor model P388 Leukemia (intraperitoneal) in B6D2F1 (BDF1) mice
Conditions: endpoint: median survival time, higher = longer survival
Outline: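 Each value expresses how treatment altered survival: treated-mouse outcome over vehicle-mouse outcome, both groups bearing the transplanted tumour.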

[1] = dose: 50.0 mg/kg/injection, schedule: Q01DX009 (ip), vehicle: Klucel (hydroxypropylcellulose) (HPC)
[2] = dose: 100.0 mg/kg/injection, schedule: Q01DX009 (ip), vehicle: Klucel (hydroxypropylcellulose) (HPC)
[3] = dose: 100.0 mg/kg/injection, schedule: Q01DX009 (ip), vehicle: saline with Tween-80
[4] = dose: 200.0 mg/kg/injection, schedule: Q01DX009 (ip), vehicle: saline with Tween-80
[5] = dose: 400.0 mg/kg/injection, schedule: Q01DX009 (ip), vehicle: saline with Tween-80
[6] = dose: 3.12 mg/kg/injection, schedule: Q04DX003 (ip), vehicle: saline with Tween-80
[7] = dose: 100.0 mg/kg/injection, schedule: Q04DX003 (ip), vehicle: saline with Tween-80
[8] = dose: 200.0 mg/kg/injection, schedule: Q04DX003 (ip), vehicle: saline with Tween-80
[9] = dose: 400.0 mg/kg/injection, schedule: Q04DX003 (ip), vehicle: saline with Tween-80
[10] = dose: 100.0 mg/kg/injection, schedule: Q04DX003 (ip), vehicle: Klucel (hydroxypropylcellulose) (HPC)
[11] = dose: 200.0 mg/kg/injection, schedule: Q04DX003 (ip), vehicle: Klucel (hydroxypropylcellulose) (HPC)

Measured: T/C

O=C(Nc1ccc(Br)cc1)c1cc(Br)ccc1O
inactive: dose: 50.0 mg/kg/injection, schedule: Q01DX010 (ip), vehicle: steriod suspending solution 104 % of control | dose: 100.0 mg/kg/injection, schedule: Q01DX010 (ip), vehicle: steriod suspending solution 100 % of control | dose: 200.0 mg/kg/injection, schedule: Q01DX010 (ip), vehicle: steriod suspending solution 100 % of control | dose: 400.0 mg/kg/injection, schedule: Q01DX010 (ip), vehicle: steriod suspending solution 109 % of control

CC(=O)OCC(=O)[C@@]1(O)CC[C@H]2[C@@H]3CCC4=CC(=O)CC[C@]4(C)[C@@]3(F)[C@@H](O)C[C@@]21C
inactive: dose: 50.0 mg/kg/injection, schedule: Q01DX009 (sc), vehicle: steriod suspending solution 104 % of control | dose: 100.0 mg/kg/injection, schedule: Q01DX009 (sc), vehicle: steriod suspending solution 104 % of control | dose: 100.0 mg/kg/injection, schedule: Q04DX003 (sc), vehicle: steriod suspending solution 115 % of control | dose: 200.0 mg/kg/injection, schedule: Q04DX003 (sc), vehicle: steriod suspending solution 115 % of control

CC1(C)CCSC(/C=C/c2ccccc2)=N1
inactive: [1] 103 % of control | [2] 121 % of control

COc1cccc(CCNC(=O)CCN2C(=O)c3ccccc3C2=O)c1
inactive: [3] 95 % of control | [4] 109 % of control | [5] 100 % of control

COc1cc([C@@H]2c3cc4c(cc3[C@H](O)[C@H]3COC(=O)[C@@H]23)OCO4)cc(OC)c1OC
inactive: dose: 7.7 mg/kg/injection, schedule: Q01DX010 (ip), vehicle: carboxymethylcellulose (CMC) 115 % of control | dose: 37.5 mg/kg/injection, schedule: Q04DX003 (ip), vehicle: saline sonified 113 % of control | dose: 75.0 mg/kg/injection, schedule: Q04DX003 (ip), vehicle: saline sonified 122 % of control
active: dose: 12.0 mg/kg/injection, schedule: Q01DX009 (ip), vehicle: Klucel (hydroxypropylcellulose) (HPC) 166 % of control | dose: 18.0 mg/kg/injection, schedule: Q01DX009 (ip), vehicle: Klucel (hydroxypropylcellulose) (HPC) 185 % of control | dose: 27.0 mg/kg/injection, schedule: Q01DX009 (ip), vehicle: Klucel (hydroxypropylcellulose) (HPC) 195 % of control | dose: 30.8 mg/kg/injection, schedule: Q01DX010 (ip), vehicle: carboxymethylcellulose (CMC) 210 % of control | dose: 40.0 mg/kg/injection, schedule: Q01DX009 (ip), vehicle: Klucel (hydroxypropylcellulose) (HPC) 233 % of control | dose: 60.0 mg/kg/injection, schedule: Q01DX009 (ip), vehicle: Klucel (hydroxypropylcellulose) (HPC) 252 % of control | dose: 150.0 mg/kg/injection, schedule: Q04DX003 (ip), vehicle: saline sonified 180 % of control and 204 % of control | dose: 225.0 mg/kg/injection, schedule: Q04DX003 (ip), vehicle: saline sonified 300 % of control

C#CC(N)=O
inactive: dose: 12.5 mg/kg/injection, schedule: Q04DX003 (ip), vehicle: Klucel (hydroxypropylcellulose) (HPC) 100 % of control | dose: 25.0 mg/kg/injection, schedule: Q04DX003 (ip), vehicle: Klucel (hydroxypropylcellulose) (HPC) 90 % of control

CC1(C)N=C(N)N=C(N)N1c1ccc(-c2ccccc2)cc1
inactive: dose: 25.0 mg/kg/injection, schedule: Q01DX009 (ip), vehicle: Klucel (hydroxypropylcellulose) (HPC) 99 % of control | [1] 106 % of control

COC(=O)c1nc(-c2ccc3c(n2)C(=O)C(N)=C(OC)C3=O)c(N)c(-c2ccc(OC)c(OC)c2O)c1C
active: dose: 4.0 mg/kg/injection, schedule: Q01DX009 (ip), vehicle: saline with Tween-80 250 % of control | dose: 6.0 mg/kg/injection, schedule: Q01DX009 (ip), vehicle: saline with Tween-80 183 % of control | dose: 9.0 mg/kg/injection, schedule: Q01DX009 (ip), vehicle: saline with Tween-80 162 % of control

C=CC(COC(=O)C(C)(C)OC(C)=O)c1ccc(OC(=O)C(C)C)c(OC)c1 (stereo unspecified)
inactive: dose: 1.56 mg/kg/injection, schedule: Q01DX009 (ip), vehicle: saline 119 % of control | dose: 3.13 mg/kg/injection, schedule: Q01DX009 (ip), vehicle: saline 100 % of control | dose: 6.25 mg/kg/injection, schedule: Q01DX009 (ip), vehicle: saline 103 % of control | dose: 12.5 mg/kg/injection, schedule: Q01DX009 (ip), vehicle: saline 100 % of control

CCC1CCCCN1C(=S)N/N=C(\C)c1ccccn1 (stereo unspecified)
inactive: [6] 102 % of control | dose: 12.5 mg/kg/injection, schedule: Q04DX003 (ip), vehicle: saline with Tween-80 114 % of control

Brc1cnc(OCc2ccccc2)nc1OCc1ccccc1
inactive: [3] 103 % of control | [7] 104 % of control | [4] 103 % of control | [8] 104 % of control | [5] 107 % of control | [9] 108 % of control

O/C(=C\C(=S)S)c1ccc(Cl)cc1
inactive: dose: 0.39 mg/kg/injection, schedule: Q04DX003 (ip), vehicle: saline with Tween-80 100 % of control | dose: 0.78 mg/kg/injection, schedule: Q01DX009 (ip), vehicle: saline with Tween-80 97 % of control | dose: 0.78 mg/kg/injection, schedule: Q04DX003 (ip), vehicle: saline with Tween-80 92 % of control and 106 % of control (2×) | dose: 1.56 mg/kg/injection, schedule: Q01DX009 (ip), vehicle: saline with Tween-80 118 % of control | dose: 1.56 mg/kg/injection, schedule: Q04DX003 (ip), vehicle: saline with Tween-80 97 % of control and 113 % of control | dose: 3.12 mg/kg/injection, schedule: Q01DX009 (ip), vehicle: saline with Tween-80 106 % of control | [6] 95 % of control and 100 % of control and 120 % of control | dose: 6.25 mg/kg/injection, schedule: Q01DX009 (ip), vehicle: saline with Tween-80 112 % of control | dose: 6.25 mg/kg/injection, schedule: Q04DX003 (ip), vehicle: saline with Tween-80 88 % of control and 103 % of control | dose: 12.5 mg/kg/injection, schedule: Q01DX009 (ip), vehicle: saline with Tween-80 86 % of control

CC1(C)CC(C)(c2ccccc2)c2ccccc21 (stereo unspecified)
inactive: [2] 120 % of control | dose: 100.0 mg/kg/injection, schedule: Q04DX003 (ip), vehicle: other 109 % of control | dose: 132.0 mg/kg/injection, schedule: Q01DX009 (ip), vehicle: Klucel (hydroxypropylcellulose) (HPC) 90 % of control | dose: 200.0 mg/kg/injection, schedule: Q04DX003 (ip), vehicle: other 114 % of control | dose: 300.0 mg/kg/injection, schedule: Q01DX009 (ip), vehicle: Klucel (hydroxypropylcellulose) (HPC) 100 % of control | dose: 400.0 mg/kg/injection, schedule: Q04DX003 (ip), vehicle: other 104 % of control

Cc1ccc(NC(=O)c2ccccc2Cl)c(C)c1
inactive: [7] 100 % of control | [8] 100 % of control | [9] 109 % of control

C1=CCC(C2OCC3(CO2)COC(C2CC=CCC2)OC3)CC1 (stereo unspecified)
inactive: [2] 96 % of control | dose: 200.0 mg/kg/injection, schedule: Q01DX009 (ip), vehicle: Klucel (hydroxypropylcellulose) (HPC) 88 % of control | dose: 400.0 mg/kg/injection, schedule: Q01DX009 (ip), vehicle: Klucel (hydroxypropylcellulose) (HPC) 88 % of control

CC1(C)C/C(=C\c2ccc(Cl)cc2)C(=O)c2ccccc21
inactive: [10] 100 % of control | [11] 100 % of control | dose: 400.0 mg/kg/injection, schedule: Q04DX003 (ip), vehicle: Klucel (hydroxypropylcellulose) (HPC) 91 % of control

N#Cc1cnc2nc(N)nc(N)c2c1
inactive: dose: 50.0 mg/kg/injection, schedule: Q01DX009 (ip), vehicle: saline 104 % of control | dose: 100.0 mg/kg/injection, schedule: Q01DX009 (ip), vehicle: saline 107 % of control | dose: 100.0 mg/kg/injection, schedule: Q04DX003 (ip), vehicle: saline 108 % of control | dose: 200.0 mg/kg/injection, schedule: Q01DX009 (ip), vehicle: saline 117 % of control | dose: 200.0 mg/kg/injection, schedule: Q04DX003 (ip), vehicle: saline 116 % of control

O=NN1CCCNC1=O
active: dose: 66.0 mg/kg/injection, schedule: Q04DX003 (ip), vehicle: saline with Tween-80 245 % of control
inactive: [7] 116 % of control

S=c1[nH]nc(-c2ccncc2)n1C1CCCCC1
inactive: dose: 50.0 mg/kg/injection, schedule: Q04DX002 (ip), vehicle: saline with Tween-80 96 % of control | dose: 100.0 mg/kg/injection, schedule: Q04DX002 (ip), vehicle: saline with Tween-80 92 % of control | dose: 200.0 mg/kg/injection, schedule: Q04DX002 (ip), vehicle: saline with Tween-80 97 % of control

COC(OC)C1(O)CC(C(C)COC2CCCCO2)OC(=O)N1 (stereo unspecified)
inactive: dose: 50.0 mg/kg/injection, schedule: Q04DX003 (ip), vehicle: Klucel (hydroxypropylcellulose) (HPC) 102 % of control | [10] 106 % of control | [11] 106 % of control
